Measured values published in US20080045567A1, “Therapeutic Agent for Hyperlipemia and Therapeutic Agent for Diabetes” (Kowa Co., Ltd, priority 2004, published 2008).

Columns and labels:
[1] = system: blood triglycerides; assay: Lowering of blood triglycerides by combined administration of sodium salt of compound A and calcium salt of pitavastatin in rats (Example 1); format: in vivo, male Wistar strain rats; details: rat; for blood triglycerides in comparison with the control group (in words): orally 14 days, Dunnett's test; for Reduction rate of blood triglycerides (%): blood collected after 18 h fast, vs control group
Protocol: The effect of lowering blood triglycerides by combined administration of sodium salt of the compound A and calcium salt of pitavastatin was determined by the following method. Six-week-old male Wistar strain rats (Nippon Ikagaku Jikken Doubutsu Kabushiki Kaisha) were used for the test. Throughout the experimental period, the rats were fed in a rearing room maintained at a light-dark cycle (light period lit by room lamp: 7 am to 7 pm), a temperature of 23±3 degrees C., and a humidity of 55±15%, and were allowed free access to solid feed (CE-2: CLEA Japan, Inc.) and tap water. Calcium salt of pitavastatin and sodium salt of the compound A were suspended in an aqueous solution of 0.5% by mass of sodium carboxymethylcellulose (Iwai Chemicals Co., Ltd.) and prepared so that the dose amount became 2 mL/kg. Since calcium salt of pitavastatin contained 9.43% by mass of water, 1.1-fold by mass of the dose amount was weighed to correct. The suspension was refrigerated (4 degrees C.) and kept in a light-resistant bottle, and its preparation was carried out every 7 days. Thirty-two rats were divided into four groups (eight rats per each group) so that blood total cholesterol and blood triglycerides are averaged. That is, the four groups consisted of a control group, a group of calcium salt of pitavastatin alone (10 mg/kg), a group of sodium salt of the compound A alone (1 mg/kg), and a group of a combination of calcium salt of pitavastatin (10 mg/kg) and sodium salt of the compound A (1 mg/kg). The drugs were orally administered once a day (at 4 pm) for 14 days repeatedly, and the control group received orally the aqueous solution of 0.5% by mass of sodium carboxymethylcellulose at 2 mL/kg. All the groups were fasted for 18 hours after the final administration. Then, blood was collected and blood triglycerides were determined. Multigroup comparison between the control group and drug-administered group was performed with Dunnett's multiple comparison test after Bartlett's test for analysis of variance, and a significance level lower than 5% was considered to indicate significant difference.

[2] = system: blood triglycerides; assay: Lowering of blood triglycerides by combined administration of sodium salt of compound A and calcium salt of atorvastatin in rats (Example 2); format: in vivo, male Wistar strain rats; details: rat; for blood triglycerides in comparison with the control group (in words): orally 14 days, Dunnett's test; for Reduction rate of blood triglycerides (%): blood collected after 18 h fast, vs control group
Text: Six-week-old male Wistar strain rats (Nippon Ikagaku Jikken Doubutsu Kabushiki Kaisha) were used for the test. Throughout the experimental period, the rats were fed in a rearing room maintained at a light-dark cycle (light period lit by room lamp: 7 am to 7 pm), a temperature of 23±3 degrees C., and a humidity of 55±15%, and were allowed free access to solid feed (CE-2: CLEA Japan, Inc.) and tap water.
Calcium salt of pitavastatin and sodium salt of the compound A were suspended in an aqueous solution of 0.5% by mass of sodium carboxymethylcellulose (Iwai Chemicals Co., Ltd.) and prepared so that the dose amount became 2 mL/kg. Since calcium salt of pitavastatin contained 9.43% by mass of water, 1.1-fold by mass of the dose amount was weighed to correct. The suspension was refrigerated (4 degrees C.) and kept in a light-resistant bottle, and its preparation was carried out every 7 days.
Thirty-two rats were divided into four groups (eight rats per each group) so that blood total cholesterol and blood triglycerides are averaged. That is, the four groups consisted of a control group, a group of calcium salt of pitavastatin alone (10 mg/kg), a group of sodium salt of the compound A alone (1 mg/kg), and a group of a combination of calcium salt of pitavastatin (10 mg/kg) and sodium salt of the compound A (1 mg/kg). The drugs were orally administered once a day (at 4 pm) for 14 days repeatedly, and the control group received orally the aqueous solution of 0.5% by mass of sodium carboxymethylcellulose at 2 mL/kg. All the groups were fasted for 18 hours after the final administration. Then, blood was collected and blood triglycerides were determined.
The effect of lowering blood triglycerides by combined administration of sodium salt of the compound A and calcium salt of atorvastatin was determined as in Example 1.

[3] = 1 mg/kg orally once a day for 14 days

O=C(O)C[C@H](O)C[C@H](O)/C=C/c1c(C2CC2)nc2ccccc2c1-c1ccc(F)cc1 [Pitavastatin Ca, (3R,5S,6E)-7-[2-cyclopropyl-4-(4-fluorophenyl)-3-quinolyl]-3,5-dihydroxy-6-heptenoic acid]
blood triglycerides in comparison with the control group (in words) ([1]; 10 mg/kg alone): a tendency to be lowered | Reduction rate of blood triglycerides (%) ([1]; 10 mg/kg orally once a day for 14 days): 20%

CC(C)c1c(C(=O)Nc2ccccc2)c(-c2ccccc2)c(-c2ccc(F)cc2)n1CC[C@@H](O)C[C@@H](O)CC(=O)O [Atorvastatin Ca, atorvastatin]
blood triglycerides in comparison with the control group (in words) ([2]; 50 mg/kg alone): a tendency to be lowered | Reduction rate of blood triglycerides (%) ([2]; 50 mg/kg orally once a day for 14 days): 7%

O=C(O)C(Cl)(Cl)CCCCCCCCCCc1ccc(Cl)cc1 [Compound A Na, 12-(4-chlorophenyl)-2,2-dichlorododecanoic acid]
blood triglycerides in comparison with the control group (in words) ([2]; 1 mg/kg alone, p<0.05): a significant reduction | Reduction rate of blood triglycerides (%) [2, 3]: 25% | blood triglycerides in comparison with the control group (in words) ([1]; 1 mg/kg alone, p<0.05): a significant reduction | Reduction rate of blood triglycerides (%) [1, 3]: 25%
